Where a name gives a salt, the structure may show the parent alone. Calls of active or inactive are those of the source.
How the values were obtained:
[1] = molecular target: Disintegrin and metalloproteinase domain-containing protein 17 (Homo sapiens, UniProt P78536); test: ADAM17 protease inhibitors, dose response, counter-screen for ADAM10 exosite inhibitor project, biochemical, quenched FRET substrate (AID 743253)
[2] = ADAM10 inhibitors, peptide cleavage, dose response, biochemical, QFRET (AID 743254);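 further: ADAM10 enzyme with the DM2 quenched FRET peptide as substrate; EDANS fluorescence gain as the protease cuts the substrate; inhibitor potency against ADAM10 proteolytic activity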
SUMO-activating enzyme = SUMO-activating enzyme (Homo sapiens, UniProt Q9UBT2); test: SUMOylation inhibitor hit validation, confirmation, SUMOylation inhibitor project, biochemical, AlphaScreen (AID 2018); type: functional
[3] = Artemis endonuclease inhibitor potency, dose response, biochemical, fluorescence intensity (AID 720701); type: functional;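 further: Artemis endonuclease enzyme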
[4] = molecular target: Sphingosine 1-phosphate receptor 2 (Homo sapiens, UniProt O95136); test: Dose Response Cell Based Assay for Antagonists of the S1P2 Receptor. [Related pubchem assays: 856, 736 ]; type: functional
[5] = molecular target: Mitogen-activated protein kinase 10 (Homo sapiens, UniProt P53779); test: Dose response biochemical screening assay for inhibitors of c-Jun N-Terminal Kinase 3 (JNK3). [Related pubchem assays: 746 ]
Sequence of Mitogen-activated protein kinase 10 (P53779 whole entry): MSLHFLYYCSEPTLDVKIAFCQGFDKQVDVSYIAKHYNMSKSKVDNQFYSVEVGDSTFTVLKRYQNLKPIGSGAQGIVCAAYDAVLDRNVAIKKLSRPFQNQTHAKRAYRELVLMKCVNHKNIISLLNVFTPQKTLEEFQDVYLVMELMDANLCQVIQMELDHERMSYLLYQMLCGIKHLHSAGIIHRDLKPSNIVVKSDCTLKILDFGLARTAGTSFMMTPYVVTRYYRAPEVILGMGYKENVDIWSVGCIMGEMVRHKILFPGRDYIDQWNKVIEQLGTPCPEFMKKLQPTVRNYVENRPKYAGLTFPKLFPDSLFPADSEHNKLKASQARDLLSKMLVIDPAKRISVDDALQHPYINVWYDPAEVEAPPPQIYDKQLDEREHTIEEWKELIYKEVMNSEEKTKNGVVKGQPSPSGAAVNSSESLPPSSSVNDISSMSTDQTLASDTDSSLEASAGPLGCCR

[6] = inhibitors of intracellular T. cruzi replication, confirmation, NIH3T3 host cells, beta-gal luminescence (AID 2044); type: functional, cell-based;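 further: intracellular parasites grown in NIH/3T3 mouse fibroblasts as host cells; luminescent beta-galactosidase reporter signal from transgenic T. cruzi replicating inside host cells; inhibitors lower the luminescence signal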
[7] = A cytotoxicity screen of small molecule inhibitors of the PhoP region in Salmonella typhi identified in the primary screen. [Related pubchem assays: 1850, 1864, 1985 ]; type: functional
cells [8] = test: cells
[9] = cytotoxicity toward NIH3T3 fibroblasts, dose response, counter-screen, cell-based, ATP luminescence, mouse fibroblasts (AID 2010); type: functional;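 further: cells exposed to compound for about 90 hours before reading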
[10] = molecular target: Peroxisome proliferator-activated receptor gamma/Nuclear receptor corepressor 2 (Homo sapiens, UniProt P37231+Q9Y618); test: Counterscreen for NR2E3 inverse agonists: TR-FRET-based biochemical high throughput dose response assay to identify inverse agonists of the interaction between peroxisome proliferator-activated receptor gamma (PPARg) and nuclear receptor co-repressor 2 (NCOR2).; type: functional
Sequence of Peroxisome proliferator-activated receptor gamma/Nuclear receptor corepressor 2 (P37231 whole entry): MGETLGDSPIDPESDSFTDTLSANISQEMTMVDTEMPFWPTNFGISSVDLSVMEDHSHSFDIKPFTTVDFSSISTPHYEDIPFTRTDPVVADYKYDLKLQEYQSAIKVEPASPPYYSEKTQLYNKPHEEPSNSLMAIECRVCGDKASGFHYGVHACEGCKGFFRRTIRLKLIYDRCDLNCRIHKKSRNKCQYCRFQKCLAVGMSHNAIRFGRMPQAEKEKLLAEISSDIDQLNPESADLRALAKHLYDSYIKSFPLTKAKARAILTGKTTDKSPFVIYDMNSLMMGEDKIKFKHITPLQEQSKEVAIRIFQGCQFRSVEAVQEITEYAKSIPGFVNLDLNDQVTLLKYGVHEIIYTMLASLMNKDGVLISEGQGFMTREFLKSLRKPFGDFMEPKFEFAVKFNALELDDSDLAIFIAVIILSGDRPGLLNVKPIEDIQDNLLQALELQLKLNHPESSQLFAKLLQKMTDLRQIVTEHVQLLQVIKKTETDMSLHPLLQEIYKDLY
Sequence of Peroxisome proliferator-activated receptor gamma/Nuclear receptor corepressor 2 (Q9Y618 whole entry): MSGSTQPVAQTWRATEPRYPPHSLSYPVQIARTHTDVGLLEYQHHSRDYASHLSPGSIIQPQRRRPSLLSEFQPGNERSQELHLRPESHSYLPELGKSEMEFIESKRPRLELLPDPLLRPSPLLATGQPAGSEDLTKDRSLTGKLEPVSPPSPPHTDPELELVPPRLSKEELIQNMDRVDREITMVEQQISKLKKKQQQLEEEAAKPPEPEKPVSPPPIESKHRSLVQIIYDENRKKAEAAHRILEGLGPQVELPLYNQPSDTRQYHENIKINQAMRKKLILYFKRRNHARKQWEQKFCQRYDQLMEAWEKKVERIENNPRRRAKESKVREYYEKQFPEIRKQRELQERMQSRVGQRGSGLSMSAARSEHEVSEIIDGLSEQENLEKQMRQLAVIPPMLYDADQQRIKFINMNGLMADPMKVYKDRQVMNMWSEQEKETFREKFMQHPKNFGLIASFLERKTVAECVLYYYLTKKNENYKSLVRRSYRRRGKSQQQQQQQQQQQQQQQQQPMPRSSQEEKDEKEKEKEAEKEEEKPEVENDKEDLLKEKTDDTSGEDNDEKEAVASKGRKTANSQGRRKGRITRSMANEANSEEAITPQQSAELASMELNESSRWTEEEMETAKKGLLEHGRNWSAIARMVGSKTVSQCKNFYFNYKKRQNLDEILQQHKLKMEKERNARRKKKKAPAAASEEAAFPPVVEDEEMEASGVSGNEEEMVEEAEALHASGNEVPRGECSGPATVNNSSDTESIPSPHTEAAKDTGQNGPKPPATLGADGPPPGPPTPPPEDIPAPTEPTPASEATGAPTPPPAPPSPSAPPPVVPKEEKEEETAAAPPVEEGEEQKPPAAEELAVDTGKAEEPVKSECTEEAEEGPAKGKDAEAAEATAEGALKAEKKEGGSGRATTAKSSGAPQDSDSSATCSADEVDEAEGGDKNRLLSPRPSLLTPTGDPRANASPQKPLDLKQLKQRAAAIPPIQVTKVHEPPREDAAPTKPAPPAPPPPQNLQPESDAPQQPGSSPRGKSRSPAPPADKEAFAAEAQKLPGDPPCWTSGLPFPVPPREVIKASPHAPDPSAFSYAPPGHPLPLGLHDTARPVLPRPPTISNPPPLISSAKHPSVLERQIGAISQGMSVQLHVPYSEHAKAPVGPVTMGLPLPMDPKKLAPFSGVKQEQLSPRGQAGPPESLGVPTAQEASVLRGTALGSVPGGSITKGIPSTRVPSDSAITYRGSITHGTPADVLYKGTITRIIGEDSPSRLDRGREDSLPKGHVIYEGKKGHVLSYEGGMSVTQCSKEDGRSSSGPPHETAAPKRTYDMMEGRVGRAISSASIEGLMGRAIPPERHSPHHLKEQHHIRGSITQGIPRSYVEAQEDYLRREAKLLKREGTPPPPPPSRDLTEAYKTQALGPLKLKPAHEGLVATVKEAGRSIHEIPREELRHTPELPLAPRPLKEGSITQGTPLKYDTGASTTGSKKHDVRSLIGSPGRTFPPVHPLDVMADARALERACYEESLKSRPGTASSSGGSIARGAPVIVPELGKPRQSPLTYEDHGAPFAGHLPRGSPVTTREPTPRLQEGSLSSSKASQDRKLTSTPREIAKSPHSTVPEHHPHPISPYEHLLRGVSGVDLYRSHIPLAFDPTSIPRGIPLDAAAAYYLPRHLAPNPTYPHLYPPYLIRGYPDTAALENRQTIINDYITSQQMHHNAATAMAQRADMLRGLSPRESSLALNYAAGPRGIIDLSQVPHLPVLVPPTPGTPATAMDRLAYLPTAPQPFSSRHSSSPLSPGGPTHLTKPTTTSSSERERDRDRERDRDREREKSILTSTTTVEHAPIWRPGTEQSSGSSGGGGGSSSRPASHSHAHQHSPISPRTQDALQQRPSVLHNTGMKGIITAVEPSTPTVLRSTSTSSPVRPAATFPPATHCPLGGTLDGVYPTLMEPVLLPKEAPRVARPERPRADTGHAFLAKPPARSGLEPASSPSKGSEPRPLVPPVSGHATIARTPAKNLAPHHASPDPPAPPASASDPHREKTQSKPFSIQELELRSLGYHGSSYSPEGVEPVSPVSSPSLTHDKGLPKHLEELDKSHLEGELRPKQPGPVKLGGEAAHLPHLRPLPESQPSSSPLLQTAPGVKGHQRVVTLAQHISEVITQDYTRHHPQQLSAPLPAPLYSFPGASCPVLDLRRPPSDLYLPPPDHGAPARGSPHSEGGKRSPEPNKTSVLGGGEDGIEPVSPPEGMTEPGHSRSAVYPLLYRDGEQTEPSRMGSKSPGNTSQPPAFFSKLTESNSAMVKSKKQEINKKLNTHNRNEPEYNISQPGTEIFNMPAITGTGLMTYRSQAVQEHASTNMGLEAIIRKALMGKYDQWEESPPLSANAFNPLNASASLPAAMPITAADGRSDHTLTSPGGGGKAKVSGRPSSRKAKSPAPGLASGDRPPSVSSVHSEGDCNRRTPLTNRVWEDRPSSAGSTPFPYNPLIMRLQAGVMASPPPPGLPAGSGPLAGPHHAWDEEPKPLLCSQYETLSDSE

[11] = molecular target: Photoreceptor-specific nuclear receptor (Homo sapiens, UniProt Q9Y5X4); test: NR2E3 inverse agonists, dose response, biochemical, TR-FRET (AID 463256); type: functional
Sequence of Photoreceptor-specific nuclear receptor (Q9Y5X4 whole entry): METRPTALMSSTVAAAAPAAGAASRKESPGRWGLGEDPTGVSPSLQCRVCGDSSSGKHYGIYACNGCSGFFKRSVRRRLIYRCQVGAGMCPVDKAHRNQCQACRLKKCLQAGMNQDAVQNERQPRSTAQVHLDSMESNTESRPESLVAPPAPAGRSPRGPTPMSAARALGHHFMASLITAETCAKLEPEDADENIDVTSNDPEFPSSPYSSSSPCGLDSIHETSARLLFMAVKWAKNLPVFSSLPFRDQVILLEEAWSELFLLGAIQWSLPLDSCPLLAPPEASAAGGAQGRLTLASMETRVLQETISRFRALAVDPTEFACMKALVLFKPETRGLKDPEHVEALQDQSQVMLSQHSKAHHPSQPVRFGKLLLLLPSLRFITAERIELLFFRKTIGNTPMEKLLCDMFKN

[12] = molecular target: Eukaryotic translation initiation factor 4E (Mus musculus, UniProt P63073); test: eIF4E–eIF4G protein interaction inhibitors, dose response, biochemical, TR-FRET (AID 855); type: functional;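 further: potency for disrupting eIF4E binding to eIF4GI seen as loss of FRET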
Sequence of Eukaryotic translation initiation factor 4E (P63073 whole entry): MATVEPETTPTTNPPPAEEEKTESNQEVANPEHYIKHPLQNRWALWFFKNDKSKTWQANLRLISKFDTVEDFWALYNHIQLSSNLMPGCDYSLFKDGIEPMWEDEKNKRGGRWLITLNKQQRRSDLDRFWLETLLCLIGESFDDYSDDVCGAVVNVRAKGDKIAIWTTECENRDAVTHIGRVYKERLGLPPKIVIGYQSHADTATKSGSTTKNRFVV

[13] = molecular target: 26S proteasome non-ATPase regulatory subunit 14 (Homo sapiens, UniProt O00487); test: inhibition of proteasome subunit RPN11 – biochemical, fluorescence polarization, uHTS hits, confirmation (AID 602368); type: functional
Prothrombin [14] = molecular target: Prothrombin (Bos taurus, UniProt P00735); test: thrombin inhibition, dose response, biochemical, fluorescence polarization, uHTS hits (AID 602369); type: functional
[15] = molecular target: 72 kDa type IV collagenase (Homo sapiens, UniProt P08253); test: Dose Response validation of uHTS RPN11 inhibitor hits using a MMP-2 Fluorescence assay.; type: functional
[16] = molecular target: Heat shock protein HSP 90-alpha (Homo sapiens, UniProt P07900); type: functional, organism-based
Albumin = Albumin (Bos taurus, UniProt P02769); test: Counterscreen for inhibitors of T-cell receptor (TCR)-CD3 interaction: Fluorescence-based biochemical high throughput dose response assay to identify inhibitors of T-cell receptor (TCR)-CD3 interaction using a TAMRA-labeled BSA probe.; type: functional
Sequence of Albumin (P02769 whole entry): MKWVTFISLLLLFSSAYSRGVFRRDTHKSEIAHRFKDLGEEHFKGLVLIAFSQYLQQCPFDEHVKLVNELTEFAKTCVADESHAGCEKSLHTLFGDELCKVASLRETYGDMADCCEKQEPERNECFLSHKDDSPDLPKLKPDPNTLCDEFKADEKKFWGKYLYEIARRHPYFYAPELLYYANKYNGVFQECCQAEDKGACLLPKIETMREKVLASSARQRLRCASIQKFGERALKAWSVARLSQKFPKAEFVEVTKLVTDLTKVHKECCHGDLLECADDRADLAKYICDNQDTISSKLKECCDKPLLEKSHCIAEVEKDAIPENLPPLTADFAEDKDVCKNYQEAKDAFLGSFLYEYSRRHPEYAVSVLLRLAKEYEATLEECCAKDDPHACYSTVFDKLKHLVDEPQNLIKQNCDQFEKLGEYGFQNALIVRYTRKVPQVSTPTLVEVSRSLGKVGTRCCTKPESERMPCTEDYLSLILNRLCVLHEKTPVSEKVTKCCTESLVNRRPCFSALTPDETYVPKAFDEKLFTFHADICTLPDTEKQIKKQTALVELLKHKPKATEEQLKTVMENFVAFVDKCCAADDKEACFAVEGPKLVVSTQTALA

[17] = molecular target: T1, Glutathione-S-transferase (Schistosoma japonicum, UniProt Q26513); test: biotin-GST/anti-GST TR-FRET signal inhibitors, dose response, artefact control for Vif-APOBEC3G degradation inhibitor project, biochemical (AID 1117362); type: functional
T1 sequence (Q26513 whole entry): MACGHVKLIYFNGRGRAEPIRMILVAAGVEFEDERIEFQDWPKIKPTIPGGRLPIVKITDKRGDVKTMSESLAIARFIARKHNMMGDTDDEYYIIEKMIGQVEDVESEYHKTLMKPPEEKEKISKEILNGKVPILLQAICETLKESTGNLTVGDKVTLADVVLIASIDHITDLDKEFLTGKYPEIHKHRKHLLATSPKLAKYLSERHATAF

Phospholipase A2 = Phospholipase A2 (Homo sapiens, UniProt P04054); type: functional;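 further: confirmatory dose-response counterscreen on phospholipase A2, testing hits that came from an ultra-high-throughput screen for ATG4B inhibitors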
Cysteine protease ATG4B = molecular target: T2, Cysteine protease ATG4B (Homo sapiens, UniProt Q9Y4P1); type: functional;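 further: Fluorescence-based dose-response confirmation assay measuring inhibition of ATG4B activity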
T2 sequence (Q9Y4P1 whole entry): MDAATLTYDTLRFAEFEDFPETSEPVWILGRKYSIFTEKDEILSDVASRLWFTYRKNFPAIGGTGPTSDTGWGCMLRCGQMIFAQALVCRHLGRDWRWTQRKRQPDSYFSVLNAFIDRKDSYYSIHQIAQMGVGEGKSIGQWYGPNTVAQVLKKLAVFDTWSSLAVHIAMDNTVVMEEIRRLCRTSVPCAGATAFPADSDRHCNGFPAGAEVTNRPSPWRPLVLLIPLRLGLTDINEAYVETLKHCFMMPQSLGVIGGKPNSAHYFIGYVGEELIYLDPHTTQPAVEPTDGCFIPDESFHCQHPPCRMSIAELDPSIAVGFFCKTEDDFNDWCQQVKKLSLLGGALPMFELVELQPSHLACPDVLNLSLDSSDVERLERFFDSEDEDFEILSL

Prothrombin [18] = molecular target: Prothrombin (Homo sapiens, UniProt P00734); test: Thrombin 1536 HTS Dose Response Confirmation. [Related pubchem assays: 1046 (Thrombin 1536 HTS; hits were confirmed in this assay)]; type: functional
[19] = test system: Streptococcus sp. 'group A'; test: growth inhibition of control SK(-) GAS strain, dose response, counter-screen for streptokinase expression inhibitor project, luminescence, kanamycin, BacTiterGlo, confirmation (AID 1900); type: functional, organism-based
Streptococcus = test: Group A Streptococcus viability loss, dose response, counter-screen for streptokinase expression inhibitor project, luminescence, BacTiterGlo (AID 1915); type: functional, organism-based;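 further: potency for reduction of bacterial viability or growth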
Protein Tat = molecular target: T3, Protein Tat (Human immunodeficiency virus type 1 group M subtype B (isolate HXB2)(HIV-1), UniProt P04608); type: functional;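 further: tat binding to TAR RNA read out by fluorescence polarization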
T3 sequence (P04608 whole entry): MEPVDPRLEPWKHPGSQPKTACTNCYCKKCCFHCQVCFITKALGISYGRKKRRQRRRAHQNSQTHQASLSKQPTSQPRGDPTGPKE

[20] = C. albicans growth with fluconazole, confirmation, fluorescence, retest (AID 2467); type: functional, cell-based
[21] = NIH-3T3 fibroblast cytotoxicity, dose response, cytotoxicity control, cell-based, fluorescence, Alamar Blue, secondary assay (AID 2327); type: functional;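 further: NIH-3T3 mouse fibroblasts cultured with fluconazole at 8 µg/mL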
[22] = molecular target: G-protein coupled receptor 183 (Homo sapiens, UniProt P32249); test: SAR confirmation of small molecule antagonists of the EBI2 receptor via a luminescent beta-arrestin assa.; type: functional
Sequence of G-protein coupled receptor 183 (P32249 whole entry): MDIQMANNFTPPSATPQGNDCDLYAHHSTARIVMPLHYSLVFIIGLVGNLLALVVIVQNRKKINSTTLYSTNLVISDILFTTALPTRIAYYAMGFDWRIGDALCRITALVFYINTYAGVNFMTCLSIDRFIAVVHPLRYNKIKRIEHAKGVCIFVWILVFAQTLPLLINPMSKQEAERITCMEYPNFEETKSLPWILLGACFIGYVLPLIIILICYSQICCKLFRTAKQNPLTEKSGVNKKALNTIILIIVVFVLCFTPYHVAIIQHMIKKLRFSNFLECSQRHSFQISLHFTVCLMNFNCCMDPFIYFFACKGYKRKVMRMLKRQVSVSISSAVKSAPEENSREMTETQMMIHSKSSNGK

cells [23] = type: functional, cell-based
[24] = RKO cell viability reduction, dose response, CellTiter-Glo luminescence (AID 1117322); type: functional
[25] = HeLa 4N DNA content increase, dose response, cell-based, IC50 (AID 1117351); type: functional
[26] = HCT116 cell viability decrease, GSK3B pretreatment – CellTiter-Glo, IC50, dose response (AID 1117339); type: functional; settings: HCT-116
[27] = cytotoxicity toward Colo320 cells – cell-based, CellTiter-Glo luminescence, IC50, dose response (AID 1117334); type: functional; settings: COLO 320
[28] = cytotoxicity toward HCT116 cells – cell-based, CellTiter-Glo luminescence, IC50, dose response (AID 1117332); type: functional; settings: HCT-116
[29] = cytotoxicity toward HT-29 cells – cell-based, CellTiter-Glo luminescence, IC50, dose response (AID 1117330); type: functional
[30] = molecular target: T4, Nuclear receptor subfamily 0 group B member 1 (Homo sapiens, UniProt P51843); type: functional, cell-based;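 further: HEK293T cells transfected with SF-1 and DAX-1 plus StAR promoter luciferase reporter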
T4 sequence (P51843 whole entry): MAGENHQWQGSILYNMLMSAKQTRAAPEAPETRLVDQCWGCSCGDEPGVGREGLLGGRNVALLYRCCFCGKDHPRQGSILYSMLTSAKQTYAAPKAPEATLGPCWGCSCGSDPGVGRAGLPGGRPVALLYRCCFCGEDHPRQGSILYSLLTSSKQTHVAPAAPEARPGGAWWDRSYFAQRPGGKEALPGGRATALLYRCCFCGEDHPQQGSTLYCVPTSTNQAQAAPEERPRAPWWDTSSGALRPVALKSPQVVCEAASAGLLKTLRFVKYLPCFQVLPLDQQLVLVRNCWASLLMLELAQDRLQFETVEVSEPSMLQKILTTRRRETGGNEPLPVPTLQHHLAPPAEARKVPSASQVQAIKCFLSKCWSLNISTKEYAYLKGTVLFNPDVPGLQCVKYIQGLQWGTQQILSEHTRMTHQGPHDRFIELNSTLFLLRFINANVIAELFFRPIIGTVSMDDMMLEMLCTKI

Paired box protein Pax-8 = Paired box protein Pax-8 (Homo sapiens, UniProt Q06710); test: inhibitors of PAX8-driven TPO luciferase reporter, dose response, RMG-I cells, cherry-pick (AID 687027); type: functional, cell-based;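 further: luciferase reporter driven by Pax8 target thyroperoxidase promoter measured by SteadyGlo luminescence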
[31] = HeLa 2N DNA content increase, dose response, cell-based, IC50 (AID 1117349); type: functional

CSc1cccc(NC(=O)/C=C/c2ccc(Cl)cc2)c1
IC50 [1]: > 69.5 µM (inactive) | IC50 [2]: > 69.5 µM (inactive)

O=C(Nc1cccc2nsnc12)c1ccc(-c2cccc(Cl)c2)o1
IC50 (SUMO-activating enzyme): 18.3 µM (active) | IC50 [3]: > 20 µM (inactive)

CN(C)/C=N\C(=O)c1sc2cc(C(F)(F)F)cnc2c1-c1cccs1
IC50 [4]: > 30 µM (not active)

COCc1cc(C)nc(SCC(=O)Nc2cc3c(cc2C#N)OCO3)c1C#N
IC50 [5]: > 93.1 µM (not active)

CN1CCc2nc(SCC(=O)Nc3cccc(F)c3)c(C#N)c(-c3cccs3)c2C1
EC50 [6]: < 0.1 µM (active) | EC50 [7]: > 50 µM (active) | EC50 (cells [8]): < 0.004 µM (active) | EC50 [9]: > 60 µM (not active)

COc1ccc(CC(=O)NCC2CCCN(Cc3ccc(SC)cc3)C2)cc1 (stereo not given)
EC50 [6]: < 0.1 µM (active) | EC50 (cells [8]): 0.034 µM (active) | EC50 [9]: > 60 µM (not active)

COC(=O)c1sccc1NC(=O)c1ccc(OC)cc1
IC50 [5]: 26.8 µM (not active)

CC(C)=CCCC(C)CN1CCC(n2nccc2NC(=O)c2ccc3c(c2)OCO3)CC1 (stereo not given)
EC50 [6]: < 0.1 µM (active) | EC50 (cells [8]): > 10 µM (not active) | EC50 [9]: 9.11 µM (active)

Cc1ccc2oc(-c3ccc(NC(=O)c4ccc5c(c4)OCO5)cc3)nc2c1
IC50 [10]: 2 µM (active) | IC50 [11]: 2.88 µM (active)

C=CCn1c(SCC(=O)Nc2ccc(-c3nc4ccc(C)cc4s3)cc2)nnc1-c1ccccc1
IC50 [12]: > 64 µM (inactive) | IC50 [10]: 0.737 µM (active) | IC50 [13]: 23.7 µM (active) | IC50 [11]: 0.774 µM (active) | IC50 (Prothrombin [14]): 51.4 µM (active) | IC50 [15]: > 100 µM (inactive)

CCOC(=O)C1=C(NC(=O)Nc2ccc(Cl)c(Cl)c2)Nc2ccccc2N=C1CC
EC50 [6]: 2.13 µM (active) | AC50 [16]: 2.11 µM (active) | IC50 (Albumin): > 94.1 µM (inactive) | EC50 [9]: > 60 µM (not active)

CCCOc1ccc(N)cc1N
IC50 [17]: 15.8 µM (active) | IC50 [3]: > 20 µM (inactive)

CCOC(=O)c1c(-c2ccccc2)[nH]c2ccc(O)cc12
IC50 [5]: 22.2 µM (not active)

O=c1cc(O)[nH]c2c1sc1nc(C(F)(F)F)c3c(c12)CCCCC3
IC50 (Phospholipase A2): 9.53 µM (active) | IC50 [10]: > 39.8 µM (not active) | IC50 (Cysteine protease ATG4B): 11.1 µM (active) | IC50 [11]: > 39.8 µM (not active)

COC(=O)[C@]12C[C@H](CC(=O)NCCC(C)C)C(=O)N(Cc3cccc4ccccc34)C1=C[C@H](C(C)C)O[C@@H]2C1CC1
IC50 [1]: > 69.5 µM (inactive) | IC50 [2]: > 69.5 µM (inactive)

N#Cc1c(/N=C/c2ccco2)sc2c1CCC2
IC50 (Prothrombin [18]): > 50 µM (not active)

O=C(CNC(=O)c1ccccc1Br)N/N=C\c1cc([N+](=O)[O-])cc(Br)c1O
EC50 [19]: 8.28 µM (active) | EC50 (Streptococcus): 8.46 µM (active) | IC50 (Albumin): > 94.1 µM (inactive)

COc1ccc(/C=N\NC(=O)c2cc(O)c(O)c(O)c2)cc1CN1CCN(c2ccc(F)cc2)CC1
IC50 (Protein Tat): > 100 µM (inconclusive) | IC50 (Albumin): > 94.2 µM (inactive) | EC50 [20]: 1.46 µM (active) | EC50 [21]: > 150 µM (inactive)

O=C(CCCc1ccc(Br)cc1)N1CCN(Cc2ccc(Cl)cc2)CC1
IC50 [22]: > 1 µM (inactive)

N#Cc1ccccc1S(=O)(=O)N1CCN(C(=O)/C=C/c2ccc(F)cc2)CC1
IC50 [22]: 0.0482 µM (active)

CCCCC(=O)N1CCN(C(=O)/C=C/c2ccc(Br)cc2)CC1
IC50 [22]: 0.00562 µM (active)

Nc1nc(-c2ccco2)nn1C(=O)c1ccccc1Cl
IC50 (Prothrombin [18]): 14 µM (active)

CC[C@]1(O)C[C@@H]2CN(CCc3c([nH]c4ccccc34)[C@@](C(=O)OC)(c3cc4c(cc3OC)N(C)[C@H]3[C@@](O)(C(=O)OC)[C@H](OC(C)=O)[C@]5(CC)C=CCN6CC[C@]43[C@@H]65)C2)C1 [VINBLASTINE SULFATE]
IC50 (cells [23]): > 67.5 µM (inactive) | IC50 [24]: 0.001 µM (active) | IC50 [25]: 0.0032 µM (active) | IC50 [26]: 0.001 µM (active) | IC50 [27]: 0.001 µM (active) | IC50 [28]: 0.001 µM (active) | IC50 [29]: 0.001 µM (active) | IC50 [30]: > 67.5 µM (inactive) | AC50 (Paired box protein Pax-8): < 0.26 µM (active) | IC50 [31]: 0.0048 µM (active)
